Assay [1] deals with CCRF-CEM. Description: Concentration required to inhibit human T-lymphoblast CEM cell line proliferation. Format: functional, cell-based.
The target in assay [2] is Tubulin beta chain (Bos taurus). Put plainly: Concentration required to inhibit tubulin polymerization at 10 uM.
In assay [3] the test system is MOLT-4. Description: Concentration required to inhibit human T-lymphoblast Molt4/C8 cell line proliferation. Type of assay: functional, cell-based.
The subject of assay [4] is FM3A. Put plainly: Concentration required to inhibit murine mammary carcinoma FM3A cell line proliferation. The conditions noted are these: Mus musculus. Type of assay: functional, cell-based.
In assay [5] the target is Tubulin beta chain (Bos taurus) (UniProt Q6B856). Description: Inhibition of 1 uM [3H]colchicine binding to tubulin at 5 uM.
The subject of assay [6] is L1210. Description: Concentration required to inhibit murine leukemia L1210 cell line proliferation. As to conditions: Mus musculus. Type of assay: functional, cell-based.
Assay [7] deals with Tubulin beta chain (Bos taurus) (UniProt Q6B856). Put plainly: Inhibition of [3H]colchicine binding to 1 uM beta-tubulin at 2 uM.

Molecules are shown by their SMILES.

These results are taken from ChEMBL document CHEMBL1142814, “Synthesis and preliminary biological evaluation of new anti-tubulin agents containing different benzoheterocycles” (Bioorg Med Chem Lett, 2005).

Chain of Tubulin beta chain (Bos taurus) (UniProt Q6B856) (Q6B856 whole entry): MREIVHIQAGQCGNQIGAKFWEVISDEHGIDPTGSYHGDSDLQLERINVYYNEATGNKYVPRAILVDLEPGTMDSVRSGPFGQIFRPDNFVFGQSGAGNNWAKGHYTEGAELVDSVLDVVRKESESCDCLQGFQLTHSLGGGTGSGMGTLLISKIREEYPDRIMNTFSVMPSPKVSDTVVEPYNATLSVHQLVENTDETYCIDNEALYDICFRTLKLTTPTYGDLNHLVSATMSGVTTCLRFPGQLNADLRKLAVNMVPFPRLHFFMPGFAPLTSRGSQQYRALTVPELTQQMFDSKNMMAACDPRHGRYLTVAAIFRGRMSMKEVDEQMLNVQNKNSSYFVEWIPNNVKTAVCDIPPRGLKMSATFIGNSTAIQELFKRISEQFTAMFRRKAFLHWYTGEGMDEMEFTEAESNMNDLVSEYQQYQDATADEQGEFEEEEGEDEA

Turning to `COc1cc(C(=O)c2c(N)sc3c2CCCC3)cc(OC)c1OC`, the IC50 is 2.15 µM in assay [1]; over 40 µM in assay [2]; 1.58 µM in assay [3]; 5.68 µM in assay [4]; 2.24 µM in assay [6]. The compound further showed an inhibition in assay [5] of 3%.

As for `COc1ccc(C(=O)c2c(N)sc3ccccc23)cc1OC`, the half-maximal inhibitory concentration (IC50) in assay [1] is 1.7 µM; in assay [3], 1.7 µM; in assay [4], 4.7 µM; in assay [6] it was 3.7 µM.

Turning to `COc1cc(C(=O)c2sc3ccccc3c2N)cc(OC)c1OC`, the half-inhibitory concentration (IC50) in assay [1] came out at 0.31 µM; in assay [2], 4.2 µM; in assay [3], 0.29 µM; in assay [4], 1.8 µM; in assay [6], 0.35 µM. The inhibition in assay [5] turned out to be 39%.

Regarding `COc1cc(C(=O)c2sc3cc(C)ccc3c2N)cc(OC)c1OC`, the IC50 in assay [1] was determined as 0.024 µM; in assay [2] it was 1.3 µM; in assay [3], 0.034 µM; in assay [4], 0.071 µM; in assay [6], 0.058 µM. For the same compound, the inhibition in assay [7] came out at 77%; in assay [5], 88%.

Turning to `COc1cc(C(=O)c2c(N)sc3ccccc23)cc(OC)c1OC`, the IC50 stood at 3.1 µM in assay [2] and 0.073 µM in assay [3]. For the same compound, the inhibition in assay [5] stood at 57%.

As to `COc1cc(C(=O)c2[nH]c3ccccc3c2N)cc(OC)c1OC`, the IC50 in assay [1], in assay [3], in assay [4] and in assay [6] was over 10 µM in each case.

Consider `COc1ccc(C(=O)c2c(N)sc3ccccc23)cc1`, for which the IC50 was over 10 µM in assay [1], 9.2 µM in assay [3], over 10 µM in assay [4] and over 10 µM in assay [6].

Take `COc1cc(C(=O)c2oc3ccccc3c2N)cc(OC)c1OC`: the IC50 in assay [1], in assay [3], in assay [4] and in assay [6] was over 10 µM throughout.
